# Laboratory results taken from patent US7456210B2, “Benzyloxy derivatives” (Hoffmann-La Roche Inc., priority 2004, dated 2008).
# Molecular target: T1, human MAO-B (Homo sapiens, UniProt P27338)
# T1 construct: expressed in transfected cells; host or cells: EBNA cells (transient transfection); cell membranes used
# T1 sequence (P27338 1-520): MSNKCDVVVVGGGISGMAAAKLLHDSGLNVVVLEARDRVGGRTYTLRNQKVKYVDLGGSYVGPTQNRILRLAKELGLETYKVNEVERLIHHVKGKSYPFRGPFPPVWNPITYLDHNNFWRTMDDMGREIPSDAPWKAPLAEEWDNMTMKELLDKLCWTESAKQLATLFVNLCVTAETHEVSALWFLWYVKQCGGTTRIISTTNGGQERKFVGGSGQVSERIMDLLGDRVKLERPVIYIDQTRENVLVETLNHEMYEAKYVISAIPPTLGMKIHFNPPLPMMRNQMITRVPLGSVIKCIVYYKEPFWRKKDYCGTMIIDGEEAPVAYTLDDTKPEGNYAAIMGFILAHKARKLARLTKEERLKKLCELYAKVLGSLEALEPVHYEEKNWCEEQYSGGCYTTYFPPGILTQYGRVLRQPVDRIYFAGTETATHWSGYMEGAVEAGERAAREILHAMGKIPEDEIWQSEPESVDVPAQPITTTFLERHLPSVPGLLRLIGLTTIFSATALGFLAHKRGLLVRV
# Test: MAO-B enzymatic activity, spectrophotometric Amplex Red assay on membranes of transfected EBNA cells
# Format: biochemical
# Settings: membranes of EBNA cells transfected with human MAO-B; substrate tyramine; 30 min preincubation at 37° C., pH 7.4
# Protocol: The cDNA's encoding human MAO-A and MAO-B were transiently transfected into EBNA cells using the procedure described by Schlaeger and Christensen [Cytotechnology 15:1-13 (1998)]. After transfection, cells were homogenised by means of a Polytron homogenizer in 20 mM Tris HCl buffer, pH 8.0, containing 0.5 mM EGTA and 0.5 mM phenylmethanesulfonyl fluoride. Cell membranes were obtained by centrifugation at 45,000×g and, after two rinsing step with 20 mM Tris HCl buffer, pH 8.0, containing 0.5 mM EGTA, membranes were eventually re-suspended in the above buffer and aliquots stored at −80° C. until use.
# MAO-A and MAO-B enzymatic activity was assayed in 96-well-plates using a spectro-photometric assay adapted from the method described by Zhou and Panchuk-Voloshina [Analytical Biochemistry 253:169-174 (1997)]. Briefly, membrane aliquots were incubated in 0.1 M potassium phosphate buffer, pH 7.4, for 30 min at 37° C. with or without various concentrations of the compounds. After this period, the enzymatic reaction was started by the addition of the MAO substrate tyramine together with 1 U/ml horse-radish peroxidase (Roche Biochemicals) and 80 μM N-acetyl-3,7,-dihydroxyphenoxazine (Amplex Red, Molecular Probes). The samples were further incubated for 30 min at 37° C. in a final volume of 200 μl and absorbance was then determined at a wavelength of 570 nm using a SpectraMax plate reader (Molecular Devices). Background (non-specific) absorbance was determined in the presence of 10 μM clorgyline for MAO-A or 10 μM L-deprenyl for MAO-B.
# IC50 values were determined from inhibition curves obtained using nine inhibitor concentrations in duplicate, by fitting data to a four parameter logistic equation using a computer program.
row,IC50 [µM],SMILES
1,0.011,"CC(=O)[C@@H]1CC(=O)N(c2ccc(OCc3cccc(F)c3)cc2)C1 [Example 11, (R)-4-Acetyl-1-[4-(3-fluoro-benzyloxy)-phenyl]-pyrrolidin-2-one]"
2,0.429,"NC(=O)c1nc([C@@H]2CC(=O)N(c3ccc(OCc4cccc(F)c4)cc3)C2)no1 [Example 6, 3-{(R)-1-[4-(3-Fluoro-benzyloxy)-phenyl]-5-oxo-pyrrolidin-3-yl}-[1,2,4]oxadiazole-5-carboxylic acid amide]"
3,0.016,"Cc1nc([C@@H]2CC(=O)N(c3ccc(OCc4cccc(F)c4)cc3)C2)no1 [Example 4, (R)-1-[4-(3-Fluoro-benzyloxy)-phenyl]-4-(5-methyl-[1,2,4]oxadiazol-3-yl)-pyrrolidin-2-one]"
4,0.187,"O=C1C[C@@H](c2c[nH]cn2)CN1c1ccc(OCc2cccc(F)c2)cc1 [Example 9, (R)-1-[4-(3-Fluoro-benzyloxy)-phenyl]-4-(1H-imidazol-4-yl)-pyrrolidin-2-one]"
5,0.392,"CON(C)C(=O)[C@@H]1CC(=O)N(c2ccc(OCc3cccc(F)c3)cc2)C1 [Example 10, (R)-1-[4-(3-Fluoro-benzyloxy)-phenyl]-5-oxo-pyrrolidine-3-carboxylic acid methoxy-methyl-amide]"
6,0.018,"N=C(NO)[C@@H]1CC(=O)N(c2ccc(OCc3cccc(F)c3)cc2)C1 [Example 3, (R)-1-[4-(3-Fluoro-benzyloxy)-phenyl]-N-hydroxy-5-oxo-pyrrolidine-3-carboxamidine]"
7,0.387,"Cc1nc([C@@H]2CC(=O)N(c3ccc(OCc4cccc(F)c4)cc3)C2)cs1 [Example 8, (R)-1-[4-(3-Fluoro-benzyloxy)-phenyl]-4-(2-methyl-thiazol-4-yl)-pyrrolidin-2-one]"
8,0.043,"CCOC(=O)c1nc([C@@H]2CC(=O)N(c3ccc(OCc4cccc(F)c4)cc3)C2)no1 [Example 5, 3-{(R)-1-[4-(3-Fluoro-benzyloxy)-phenyl]-5-oxo-pyrrolidin-3-yl}-[1,2,4]oxadiazole-5-carboxylic acid ethyl ester]"
